How the values were obtained:
[1] = system: B. subtilis ATCC 6051 type strain; assay: MIC in the presence of human serum (serum reversal); format: cell-based, Bacillus subtilis; settings: 10% serum
Source text: (§1) To obtain some initial insight into the apparent disparity between in vitro and in vivo results, we repeated the MIC experiments against four selected Gram‐positive strains in the presence of 10 % or 50 % human serum (Table S3). Pt1 and Pt2 maintained some antibacterial activity against B. subtilis in the presence of 10 % serum, but a complete loss of activity was observed against MRSA and GISA (50 % serum), and VRE (10 % serum). […] Systemic administration is therefore unlikely to be a suitable administration route for this class of compounds unless an alternative formulation that can prevent serum binding (e. g. by lipid or nanoparticle encapsulation) can be found. […] Further in vivo studies should therefore focus on more suitable disease models. […]
(§2) Antibacterial minimum inhibitory concentration (MIC) assay
(§3) concentration. (in-house screening)
(§4) Bacto Laboratories 212322) at 37 °C overnight.
(§5) The resultant mid-log phase cultures were diluted
(§6) Gram-negative and Gram-positive bacteria, respectively.
(§7) final concentration range of 0.8 – 100 µM.
(§8) inhibitors as positive control. […]

[2] = system: HEK-293 ATCC CRL-1573 human embryonic kidney cells; format: cell-based
Method: As part of the CO‐ADD screening, all compounds that show any activity against a microbial strain are evaluated for their cytotoxicity against human embryonic kidney cells (HEK‐293) and for haemolysis against human red blood cells. None of the compounds tested for cytotoxicity (Pt1‐9 and Pd1) caused any significant cell death up to concentrations of 100 μM. […] We have also observed higher IC50 values for the methylated complexes Pt3 and Pt4 against HeLa cells in previous work.[16] […]
(§9) inhibitors as positive control.
(§10) Tamoxifen (Sigma T5648) was used
(§11) as internal control on each plate.
in a Neubauer haemocytometer. […]

[3] = system: Staphylococcus aureus VRS 1, VRSA (VanA); assay: Antibacterial MIC assay, Gram-positive panel; format: cell-based; settings: Table S1 panel; n=4
Source text: (§12) Bis(dimethyl-η4)-((1Z,1'E,5Z,5'E)-(1,1'-bi(cyclooctadiene))diplatinum(II) (Pt14) Smiles: C1C=CCCC(=CC1)C1=CCCC=CCC1.C[Pt]C.C[Pt]C
(§13) InChIKey: PHIWIZAHOBWKFJ-HPCBIOCFSA-N
(§14) Link to selected data that was repeated to approve the identity of the compounds: https://dx.doi.org/10.14272/PHIWIZAHOBWKFJ-HPCBIOCFSA-N.1
(§15) ATCC strains were sourced from the American Type Culture Collection and NRS strains from NARSA (Network on Antimicrobial Resistance in Staphylococcus aureus) via BEI Resources (www.beiresources.org), with clinical MSSA and MRSA isolates from Prof Graeme Nimmo, Queensland […]
(§16) Health Central Pathology. […]
as §2
(§17) Compound Assay Plate Preparation: Compounds were dissolved in DMSO at 10mM (CO-ADD screening) or 4 mM (follow up screening) and were plated in a 2-fold dose response from 20 to 0.156 µM or 200 to 0.006 µM respectively, with a maximum of 0.5% or 1% DMSO, final in the assay […]
(§18) plated in a 2-fold dose response from 200 to 0.006 µM, with a maximum of 1 % DMSO, final in the assay concentration. (in-house screening)
(§19) For all the bacterial assays, each strain was cultured in Cation-adjusted Mueller Hinton broth (CAMHB; Bacto Laboratories 212322) at 37 °C overnight. A sample of each culture was then diluted 40-fold in fresh CAMHB and incubated at 37 °C for 1.5–3 h. The resultant mid-log phase cultures were diluted with CAMHB (CFU mL−1 measured by OD600), then added to each well of the compound-containing plates (384-well non-binding surface (NBS) plates; Corning CLS3640), giving a cell density of 5 × 10^5 CFU mL−1 and a total volume of 50 μL. Plates were covered and incubated at 37 °C for 18 h without shaking. Inhibition of bacterial growth was determined measuring absorbance at 600 nm (OD600), using media only as negative control and bacteria without inhibitors as positive control. MIC values were determined as the lowest concentration at which the growth was inhibited at ≥80%. Colistin sulfate (Sigma C4461) and vancomycin HCl (Sigma 861987) were used as internal controls on each plate for Gram-negative and Gram-positive bacteria, respectively. […]

[4] = system: Staphylococcus aureus ATCC 25923, MSSA; assay: Antibacterial MIC assay, Gram-positive panel; format: cell-based; settings: Table S1 panel; n=4
Source text: as §12, §13, §14, §15, §16, §2, §17, §18, §19

[5] = system: Staphylococcus epidermidis ATCC 14990, type strain; assay: Antibacterial MIC assay, Gram-positive panel; format: cell-based; settings: Table S1 panel; n=4
Method: (§20) Smiles: C1C=CCCC(=CC1)C1=CCCC=CCC1.C[Pt]C.C[Pt]C […]
as §15, §16, §2, §17, §18, §19

[6] = system: Enterococcus faecalis Clinical Isolate, VRE (VanB); assay: Antibacterial MIC assay, Gram-positive panel; format: cell-based; settings: Table S1 panel; n=4
Method: as §20, §15, §16, §2, §17, §18, §19

[7] = system: Enterococcus faecium ATCC 35667, type strain; assay: Antibacterial MIC assay, Gram-positive panel; format: cell-based; settings: Table S1 panel; n=4
Method: as §20, §15, §16, §2, §17, §18, §19

[8] = system: Staphylococcus epidermidis NRS 60, VISE; assay: Antibacterial MIC assay, Gram-positive panel; format: cell-based; settings: Table S1 panel; n=4
Method: as §20, §15, §16, §2, §17, §18, §19

[9] = system: E. coli tolC (efflux pump deficient); assay: MIC against E. coli membrane mutants; format: cell-based, Escherichia coli; settings: Table S2
Method: as §2, §3, §4, §5, §6, §7, §8

[10] = system: E. coli lpxC (non‐efficient lipid A production mutant); assay: MIC against E. coli membrane mutants; format: cell-based, Escherichia coli; settings: Table S2
Method: as §2, §3, §4, §5, §6, §7, §8

S. aureus NRS 17 GISA = assay: MIC in the presence of human serum (serum reversal); format: cell-based, Staphylococcus aureus; settings: 50% serum
Source text: as §1, §2, §3, §4, §5, §6, §7, §8

[11] = system: S. aureus ATCC 43300 MRSA; assay: as above; format: cell-based, Staphylococcus aureus; settings: 50% serum
Source text: as §1, §2, §3, §4, §5, §6, §7, §8

[12] = system: E. faecium ATCC 51559 MDR, VRE; assay: as above; format: cell-based, Enterococcus faecium; settings: 10% serum
Source text: as §1, §2, §3, §4, §5, §6, §7, §8

human red blood cells = assay: Haemolysis assay; format: cell-based; settings: for Haemolysis HC10: concentration inducing 10 % haemolysis; for Haemolysis HC50: concentration inducing 50 % haemolysis
Method: As part of the CO‐ADD screening, all compounds that show any activity against a microbial strain are evaluated for their cytotoxicity against human embryonic kidney cells (HEK‐293) and for haemolysis against human red blood cells. None of the compounds tested for cytotoxicity (Pt1‐9 and Pd1) caused any significant cell death up to concentrations of 100 μM. […] We have also observed higher IC50 values for the methylated complexes Pt3 and Pt4 against HeLa cells in previous work.[16]
as §5, §6, §7, §9, §10, §11
in a Neubauer haemocytometer.
incubated for 1 h at 37 °C, without shaking.
HC10 and HC50 (concentration at which 10%
for top, bottom and slope using Prism 8. […]

[13] = system: Cryptococcus neoformans H99 ATCC 208821; assay: Antifungal MIC (CO-ADD screening); format: cell-based
Method: as §13
(§21) Health Central Pathology. Candida albicans (ATCC 90028, NCCLS 11), Cryptococcus neoformans
as §2, §3, §4

[14] = system: Candida albicans ATCC 90028; assay: Antifungal MIC (CO-ADD screening); format: cell-based
Method: as §13, §21, §2, §3, §4

[15] = system: Enterococcus faecalis ATCC 29212, control strain; assay: Antibacterial MIC assay, Gram-positive panel; format: cell-based; settings: Table S1 panel; n=4
Method: as §20, §15, §16, §2, §17, §18, §19

[16] = system: Enterococcus faecium Clinical Isolate, VRE (VanA); assay: Antibacterial MIC assay, Gram-positive panel; format: cell-based; settings: Table S1 panel; n=4
Method: as §20, §15, §16, §2, §17, §18, §19

[17] = system: Enterococcus faecium ATCC 51559, MDR, VRE (VanA); assay: Antibacterial MIC assay, Gram-positive panel; format: cell-based; settings: Table S1 panel; n=2
Method: as §20, §15, §16, §2, §17, §18, §19

[18] = system: Klebsiella pneumoniae ATCC 700603 (ESBL SHV‐18)
Method: (§22) All compounds submitted to CO‐ADD are initially screened against five bacterial strains (Staphylococcus aureus (MRSA), E. coli, Klebsiella pneumoniae, Pseudomonas aeruginosa, Acinetobacter baumannii) and two fungal strains (Candida albicans, Cryptococcus neoformans) at a single concentration (32 μg/mL or 20 μM) performed as a high‐throughput primary screening.[[11], [17a]] Any compounds that show significant growth inhibition against any of the tested strains at this step are then evaluated in a dose‐response assay against these same strains. […]
as §20, §15, §16, §2, §17, §18, §19

[19] = system: Staphylococcus aureus ATCC 43300 (MRSA); assay: microbe, parasite or virus in culture; format: cell-based; settings: for MIC Sa: CO‐ADD screening
Method: as §22, §20, §15, §16, §2, §17, §18, §19

HT‐29 colon carcinoma = system: HT‐29 colon carcinoma; design: method as in earlier work; settings: ref 14a, read-out: IC50 cytotoxicity; cited from earlier work
[20] = system: Pseudomonas aeruginosa ATCC 27853; assay: Antibacterial MIC assay; format: cell-based; settings: CO‐ADD screening
Method: as §22, §20, §15, §16, §2, §17, §18, §19

[21] = system: Acinetobacter baumannii ATCC 19606; assay: Antibacterial MIC assay; format: cell-based; settings: CO‐ADD screening
Method: as §22, §20, §15, §16, §2, §17, §18, §19

[22] = system: Escherichia coli ATCC 25922; assay: Antibacterial MIC assay; format: cell-based; settings: CO‐ADD screening
Method: as §22, §20, §15, §16, §2, §17, §18, §19

[23] = system: MCF‐7 breast cancer cells; design: method as in earlier work; settings: ref 14a, read-out: IC50 cytotoxicity; cited from earlier work
[24] = system: Staphylococcus aureus NRS 17, GISA; assay: Antibacterial MIC assay, Gram-positive panel; format: cell-based; settings: Table S1 panel; n=2
Method: as §20, §15, §16, §2, §17, §18, §19

SMILES | MIC in the presence of human serum [1] [µM] | CC50 [2] [µM] | MIC [3] [µM] | MIC [4] [µM] | MIC [5] [µM] | MIC [6] [µM] | MIC [7] [µM] | MIC [8] [µM] | MIC E. coli TolC [9] [µM] | MIC E. coli lpxC [10] [µM] | MIC in the presence of human serum (S. aureus NRS 17 GISA) [µM] | MIC in the presence of human serum [11] [µM] | MIC in the presence of human serum [12] [µM] | Haemolysis HC10 (human red blood cells) [µM] | Haemolysis HC50 (human red blood cells) [µM] | MIC Cn [13] [µM] | MIC Ca [14] [µM] | MIC [15] [µM] | MIC [16] [µM] | MIC [17] [µM] | other results
C1=CCCC=CCC1.[CH3][Pt][CH3] [Pt3] | > 200 | > 100 | > 200 | 50 | 6.25 | 200 | 200 | 25 | > 200 | 200 | > 200 | > 200 | > 200 | >100 | >100 | – | – | – | – | – | –
C1=CCCC=CCC1.[CH3][Pt][Cl] [Pt4] | > 200 | > 100 | > 200 | 100 | 50 | > 200 | > 200 | 100 | – | – | > 200 | > 200 | > 200 | 10.23 | 52.11 | 10 to 20 | 5 to 10 | > 200 | 200 | 25 | MIC Kp [18]: >20 µM; MIC Sa [19]: >20 µM; MIC ([19]; Table S1 panel, n=2): 6.25 µM; IC50 (HT‐29 colon carcinoma): 8.3 ± 3 µM; MIC Pa [20]: >20 µM; MIC Ab [21]: >20 µM; MIC Ec [22]: >20 µM; IC50 [23]: 11.2 ± 1.4 µM
C1=CCCC=CCC1.COc1cc[c]([Pt][CH3])cc1 [Pt5] | > 200 | > 100 | 200 | 100 | 50 | > 200 | > 200 | 50 | > 200 | > 200 | > 200 | > 200 | > 200 | 88.43 | >100 | 20 | 10 | > 200 | 200 | 200 | MIC [24]: 100 µM; MIC Kp [18]: >20 µM; MIC Sa [19]: >20 µM; MIC Pa [20]: >20 µM; MIC Ab [21]: >20 µM; MIC Ec [22]: >20 µM
